Tests used:
[1] = Perdue Pegboard test in Friedreich ataxia patients; format: in vivo, human; details: for Perdue pegboard (number of nails inserted with the two hands alone+together): after trial
Source text: (§1) The International Cooperative Ataxia Rating Score (ICARS) was used to assess the symptoms of ataxia before and after 1-5 months (Cano et al. International cooperative ataxia rating scale (ICARS): Appropriate for studies of Friedreich's ataxia? Mov Disord 2005; 20:1585-91). This scale has four subscales: posture and gait disturbance, kinetic functions, speech disorders and oculomotor disorders. Subscale scores are summed to give a total score ranging from 0 to 100. High scores indicated worse ataxia. The Perdue Pegboard test, which assesses speed of performance, delicate movements and manipulative dexterity, was included in the course of the study. This test assesses the ability of the participant to insert as many nails as possible into preset holes, linearly dug in a wooden board in a limited space of time (20 seconds with the two hands, separately and together). The tests were administered by the same investigator. Patients were monitored for neutropenia, agranulocytosis, musculoskeletal pains and zinc deficiency and had weekly blood counts, plasma iron, serum ferritin and transferrin concentration measurements, as well as assessments of renal and liver function.

[2] = serum deferiprone time-concentration profile (HPLC) in the 52-week monkey study; format: in vivo, cynomolgus monkeys; details: monkeys, 75 mg/kg twice daily oral
Experimental: (§2) Groups of 4 male and 4 female monkeys (2 to 3 years old) were dosed by nasogastric intubation at (0.5% w/v aqueous carboxymethylcellulose vehicle) 75 mg/kg deferiprone twice daily (bid), with 6-8 hours between doses, for at least 364 days.
(§3) Clinical signs, body weights and food intake were assessed at frequent intervals. Ophthalmological and cardiovascular examinations were carried out in Weeks 17, 30, 43, 56 and 60. Hematology, coagulation, clinical chemistry and urine parameters were measured at baseline and in Weeks 8, 16, 30, 41, 56 and 60. Blood samples were taken on the first day of dosing, and in Weeks 17 and 56 for assessment of the serum deferiprone time-concentration profile. A full necropsy was performed on each animal, selected organs weighed, and histopathological examination of abnormalities and selected tissues conducted.
Deferiprone was detectable (HPLC) from 0.5 h after dosing, and for up to 7 h.

[3] = 52-week twice daily oral toxicity study in non-iron-loaded cynomolgus monkeys; format: in vivo
Experimental: As part of a larger study on the potential toxicity of iron chelators, we evaluated the toxicity of deferiprone in normal monkeys receiving 150 mg/kg/day (75 mg/kg twice daily) for 1 year.
To determine the toxicity of deferiprone in non-iron-loaded cynomolgus monkeys following twice daily oral (gavage) administration for 52 consecutive weeks, and to evaluate the regression of any toxic effect during a 4-week treatment-free period.
as §2, §3

intracellular iron pools = details: macrophages, hepatocytes and cardiomyocyte cell lines; cited from earlier work
[4] = International Cooperative Ataxia Rating Score (ICARS), phase I-II open trial in Friedreich ataxia patients; format: in vivo, human; details: for ICARS oculomotor disorder (/6) / ICARS posture and gait disturbance: gait speed / ICARS posture and gait disturbance: spread feet / ICARS speech disorder (/8) / ICARS posture and gait disturbance: standing eyes open / ICARS posture and gait disturbance: walking / ICARS kinetic function (/29) / ICARS posture and gait disturbance 7 items (/34): after trial
Source text: Ten adolescents (four males, six females aged 14 to 23 yrs) with a diagnosis of Friedreich ataxia, confirmed by detection of a trinucleotide-repeat expansion in the first intron of the frataxin gene, were studied. Patients received deferiprone (Ferriprox™, Apotex Inc., Toronto, Canada) orally, in two doses for 1-5 months. Three patients were included, sequentially, for a minimum period of two months at each dose. Patient enrollment was staggered by two-weeks to enable monitoring of response. In the absence of toxicity, and with evidence of efficacy in any of the first 3 patients, a second group of 3 patients would be included at the same dose for a total duration of 6 months. If there was an absence of both efficacy and toxicity, the second group of three patients would be administered a higher dose. If toxicity developed, the current dose would be suspended and the trial resumed with the next group of patients at a lower dose. The patients were on idebenone (10 mg/kg/day, in three doses) for at least two years prior to inclusion and were kept on the drug at the same dose for the duration of the trial. MRI examinations were done at inclusion and at 1, 2, 4 and 6 months. The protocol was promoted by Assistance Publique-Hopitaux de Paris and approved by the local ethical committee and registered at the National Health Authority (AFSSAPS) and at the International Protocol Registration System (www.clinicaltrials.gov). A written informed consent was obtained from patients and parents.
as §1

[5] = patient eight, DFP 20 mg/kg, 3 mth, prior to trial 4
[6] = patient five, DFP 20 mg/kg, 5 mth, prior to trial 3
[7] = patient one, DFP 20 mg/kg, 4 mth, prior to trial 2
[8] = patient one, DFP 20 mg/kg, 4 mth, prior to trial 3
[9] = patient seven, DFP 20 mg/kg, 2 mth, prior to trial 2
[10] = patient seven, DFP 20 mg/kg, 2 mth, prior to trial 3
[11] = patient six, DFP 20 mg/kg, 2 mth, prior to trial 3
[12] = patient three, DFP 30 mg/kg, 1 mth, prior to trial 2
[13] = patient two, DFP 30 mg/kg, 1 mth, prior to trial 0

For Cc1c(O)c(=O)ccn1C [deferiprone, 3-hydroxy-1,2-dimethylpyridin-4-one], the “speed of performances and dexterity (Perdue Pegboard)” value ([1]; 30 mg/kg/day group, before and 1-2 months after onset of the trial) was “an improvement of speed of performances and dexterity”, the “Perdue pegboard (number of nails inserted with the two hands alone+together)” value ([1]; patient seven, DFP 20 mg/kg, 2 mth, prior to trial 37) was 29 and the “Perdue pegboard (number of nails inserted with the two hands alone+together)” value ([1]; patient six, DFP 20 mg/kg, 2 mth, prior to trial 37) was 44. For the same molecule, the “Perdue pegboard (number of nails inserted with the two hands alone+together)” value ([1]; patient two, DFP 30 mg/kg, 1 mth, prior to trial 52) was 39, the “peak concentration relative to thalassemia patients on 25 mg/kg three times daily” value [2] was “about three times” and the “deferiprone-related effects on body weight, food intake, ophthalmology, cardiac conduction, blood pressure, heart rate, hematology or urine composition” value ([3]; 75 mg/kg twice daily, 52 weeks) was “no deferiprone-related effects”. The “macroscopic findings at necropsy” value ([3]; 75 mg/kg twice daily, 52 weeks) was “No macroscopic findings related to deferiprone were found”, the “microscopic findings (histopathology)” value ([3]; 75 mg/kg twice daily, 52 weeks) was “No microscopic findings in non-iron-loaded monkeys could be attributed to treatment with deferiprone” and the overall adverse effect ([3]; oral, 75 mg/kg twice daily for 52 weeks) was “without significant adverse effect”. For the same molecule, the “access to intracellular iron pools and chelation in cells” value (intracellular iron pools) was “readily enter most cells and efficiently reach the major intracellular sites of iron accumulation”, the “change of ICARS scores” value ([4]; 20 mg/kg/day, short period of the trial) was “mild changes of the ICARS scores” and the “ICARS oculomotor disorder (/6)” value ([4]; patient eight, DFP 20 mg/kg, 3 mth, prior to trial 3) was 2. The “ICARS posture and gait disturbance: gait speed” value [4, 5] was 4, the “ICARS posture and gait disturbance: spread feet” value [4, 5] was 4 and the “ICARS speech disorder (/8)” value [4, 5] was 4. For the same molecule, the “ICARS posture and gait disturbance: standing eyes open” value ([4]; patient eight, DFP 20 mg/kg, 3 mth, prior to trial 6) was 6, the “ICARS posture and gait disturbance: walking” value ([4]; patient eight, DFP 20 mg/kg, 3 mth, prior to trial 7) was 7 and the “ICARS kinetic function (/29)” value ([4]; patient eight, DFP 20 mg/kg, 3 mth, prior to trial 21) was 21. For the same molecule, the “ICARS posture and gait disturbance 7 items (/34)” value ([4]; patient eight, DFP 20 mg/kg, 3 mth, prior to trial 33) was 32, the “ICARS speech disorder (/8)” value ([4]; patient five, DFP 20 mg/kg, 5 mth, prior to trial 1) was 0 and the “ICARS oculomotor disorder (/6)” value ([4]; patient five, DFP 20 mg/kg, 5 mth, prior to trial 2) was 2. The “ICARS posture and gait disturbance: gait speed” value [4, 6] was 3, the “ICARS posture and gait disturbance: spread feet” value [4, 6] was 2 and the “ICARS posture and gait disturbance: standing eyes open” value ([4]; patient five, DFP 20 mg/kg, 5 mth, prior to trial 4) was 4. The “ICARS posture and gait disturbance: walking” value ([4]; patient five, DFP 20 mg/kg, 5 mth, prior to trial 7) was 7, the “ICARS kinetic function (/29)” value ([4]; patient five, DFP 20 mg/kg, 5 mth, prior to trial 8) was 7 and the “ICARS posture and gait disturbance 7 items (/34)” value ([4]; patient five, DFP 20 mg/kg, 5 mth, prior to trial 28) was 27. The “ICARS posture and gait disturbance: gait speed” value ([4]; patient one, DFP 20 mg/kg, 4 mth, prior to trial 1) was 1, the “ICARS oculomotor disorder (/6)” value [4, 7] was 2 and the “ICARS posture and gait disturbance: standing eyes open” value [4, 7] was 1. The “ICARS speech disorder (/8)” value [4, 7] was 2, the “ICARS posture and gait disturbance: spread feet” value [4, 8] was 3 and the “ICARS posture and gait disturbance: walking” value [4, 8] was 2. For the same molecule, the “ICARS kinetic function (/29)” value ([4]; patient one, DFP 20 mg/kg, 4 mth, prior to trial 7) was 7, the “ICARS posture and gait disturbance 7 items (/34)” value ([4]; patient one, DFP 20 mg/kg, 4 mth, prior to trial 12) was 9 and the “ICARS oculomotor disorder (/6)” value ([4]; patient seven, DFP 20 mg/kg, 2 mth, prior to trial 0) was 0. The “ICARS posture and gait disturbance: gait speed” value ([4]; patient seven, DFP 20 mg/kg, 2 mth, prior to trial 1) was 1, the “ICARS posture and gait disturbance: spread feet” value [4, 9] was 2 and the “ICARS speech disorder (/8)” value [4, 9] was 2. The “ICARS posture and gait disturbance: standing eyes open” value [4, 10] was 1, the “ICARS posture and gait disturbance: walking” value [4, 10] was 3 and the “ICARS kinetic function (/29)” value ([4]; patient seven, DFP 20 mg/kg, 2 mth, prior to trial 13) was 12. For the same molecule, the “ICARS posture and gait disturbance 7 items (/34)” value ([4]; patient seven, DFP 20 mg/kg, 2 mth, prior to trial 16) was 13, the “ICARS oculomotor disorder (/6)” value ([4]; patient six, DFP 20 mg/kg, 2 mth, prior to trial 0) was 0 and the “ICARS posture and gait disturbance: gait speed” value ([4]; patient six, DFP 20 mg/kg, 2 mth, prior to trial 2) was 2. For the same molecule, the “ICARS posture and gait disturbance: spread feet” value [4, 11] was 3, the “ICARS speech disorder (/8)” value [4, 11] was 2 and the “ICARS posture and gait disturbance: standing eyes open” value ([4]; patient six, DFP 20 mg/kg, 2 mth, prior to trial 5) was 4. The “ICARS posture and gait disturbance: walking” value ([4]; patient six, DFP 20 mg/kg, 2 mth, prior to trial 7) was 7, the “ICARS kinetic function (/29)” value ([4]; patient six, DFP 20 mg/kg, 2 mth, prior to trial 11) was 11 and the “ICARS posture and gait disturbance 7 items (/34)” value ([4]; patient six, DFP 20 mg/kg, 2 mth, prior to trial 17) was 16. For the same molecule, the “ICARS posture and gait disturbance: spread feet” value ([4]; patient three, DFP 30 mg/kg, 1 mth, prior to trial 1) was 0, the “ICARS oculomotor disorder (/6)” value [4, 12] was 2 and the “ICARS posture and gait disturbance: gait speed” value [4, 12] was 2. The “ICARS posture and gait disturbance: standing eyes open” value [4, 12] was 1, the “ICARS posture and gait disturbance: walking” value [4, 12] was 2 and the “ICARS speech disorder (/8)” value [4, 12] was 2. The “ICARS kinetic function (/29)” value ([4]; patient three, DFP 30 mg/kg, 1 mth, prior to trial 8) was 8, the “ICARS posture and gait disturbance 7 items (/34)” value ([4]; patient three, DFP 30 mg/kg, 1 mth, prior to trial 11) was 8 and the “ICARS oculomotor disorder (/6)” value [4, 13] was 0. For the same molecule, the “ICARS speech disorder (/8)” value [4, 13] was 0, the “ICARS posture and gait disturbance: gait speed” value ([4]; patient two, DFP 30 mg/kg, 1 mth, prior to trial 1) was 1 and the “ICARS posture and gait disturbance: spread feet” value ([4]; patient two, DFP 30 mg/kg, 1 mth, prior to trial 2) was 2. For the same molecule, the “ICARS posture and gait disturbance: standing eyes open” value ([4]; patient two, DFP 30 mg/kg, 1 mth, prior to trial 3) was 2, the “ICARS posture and gait disturbance: walking” value ([4]; patient two, DFP 30 mg/kg, 1 mth, prior to trial 7) was 7 and the “ICARS kinetic function (/29)” value ([4]; patient two, DFP 30 mg/kg, 1 mth, prior to trial 9) was 9. For the same molecule, the “ICARS posture and gait disturbance 7 items (/34)” value ([4]; patient two, DFP 30 mg/kg, 1 mth, prior to trial 20) was 17.

In the case of CC(=O)N(O)CCCCCNC(=O)CCC(=O)N(O)CCCCCNC(=O)CCC(=O)N(O)CCCCCN [desferrioxamine], the “access to intracellular iron pools and chelation in cells” value (intracellular iron pools) is listed as “slow”.

Source: patent US20130190365A1, “Use of Deferiprone and Methods to Treat and/or Prevent Friedreich Ataxia Resulting from Intracellular Mishandling of Iron” (priority 2006, published 2013)
